We go through two molecules from article PMC2837340 (ACS Chemical Neuroscience, 2009).

The target in experiment [1] is T1, Shaw2 K+ channel (Shaw2 F335A) (Drosophila melanogaster, UniProt P17972, F335A).
T1 sequence (P17972 1-498 F335A): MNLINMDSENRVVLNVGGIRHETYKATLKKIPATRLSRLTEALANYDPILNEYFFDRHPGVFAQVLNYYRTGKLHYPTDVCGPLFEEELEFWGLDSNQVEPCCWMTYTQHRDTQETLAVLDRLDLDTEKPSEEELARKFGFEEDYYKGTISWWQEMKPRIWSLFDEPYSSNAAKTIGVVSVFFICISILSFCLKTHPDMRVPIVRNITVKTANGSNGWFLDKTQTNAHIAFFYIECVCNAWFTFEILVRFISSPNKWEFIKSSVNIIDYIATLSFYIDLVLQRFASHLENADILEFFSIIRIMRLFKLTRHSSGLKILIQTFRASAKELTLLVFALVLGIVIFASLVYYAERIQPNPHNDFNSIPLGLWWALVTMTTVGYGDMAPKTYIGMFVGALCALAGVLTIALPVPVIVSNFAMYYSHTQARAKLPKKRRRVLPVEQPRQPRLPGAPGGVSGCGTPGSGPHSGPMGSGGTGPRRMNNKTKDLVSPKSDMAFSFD
Description: two-electrode voltage clamp, Xenopus oocytes. The experiment is classed as cell-based. As to conditions: read-out: % inhibition at 2 mM. A general note: In two-electrode clamp one electrode senses voltage and the other passes current.

For experiment [2], the target named is horse spleen apoferritin (HSAF) (Equus caballus, UniProt P02791). Put plainly: isothermal titration calorimetry. The experiment is classed as binding.
Chain of horse spleen apoferritin (HSAF) (P02791 2-175): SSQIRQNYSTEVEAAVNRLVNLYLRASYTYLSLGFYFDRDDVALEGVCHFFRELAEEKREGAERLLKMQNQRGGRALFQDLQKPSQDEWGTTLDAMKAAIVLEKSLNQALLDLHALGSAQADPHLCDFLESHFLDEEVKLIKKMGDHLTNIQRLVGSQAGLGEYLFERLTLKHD
Chain of horse spleen apoferritin (HSAF) (Q8MIP0 2-182 partner): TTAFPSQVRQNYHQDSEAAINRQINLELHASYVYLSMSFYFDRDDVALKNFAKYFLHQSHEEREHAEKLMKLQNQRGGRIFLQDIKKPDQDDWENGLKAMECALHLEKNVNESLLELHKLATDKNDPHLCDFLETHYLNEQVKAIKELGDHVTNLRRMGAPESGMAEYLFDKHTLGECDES

As to `FC(F)OC(Cl)C(F)(F)F` (stereo not shown) [isoflurane], the inhibition (as a rule, the relative decrease from the control value, in per cent) at 2000 µM in experiment [1] worked out at 67%. For the same molecule, the dissociation constant Kd – broadly, a measure of binding affinity in units of concentration – in experiment [2] is 58 ± 2 µM.

With `FC(F)(F)C(Cl)OC(F)(F)C1N=N1` (racemic) [compound 1, azi-isoflurane], the inhibition at 2000 µM in experiment [1] stood at 77 ± 0.2%. This molecule also returned a Kd in experiment [2] of 6 ± 1 µM.
